In ChEMBL document CHEMBL4627323, “Synthesis and anti-OXPHOS, antitumor activities of DLC modified spinosyn derivatives” (Bioorg Med Chem Lett, 2020):
One block for each compound: values may come before it. Active and inactive are the calls of the source. No cut-off for these calls is given here.

Tests used:
[1] = test system: NCI-H460; assay: Antiproliferative activity against human NCI-H460 cells incubated for 48 hrs; format: functional, cell-based; conditions: NCI-H460, 48 h
[2] = test system: MCF7; assay: Antiproliferative activity against human MCF7 cells incubated for 48 hrs; format: functional, cell-based; conditions: MCF7, 48 h
[3] = test system: U-87 MG; assay: Antiproliferative activity against human U87MG cells incubated for 48 hrs; format: functional, cell-based, U-87MG ATCC
[4] = test system: HCT-116; assay: Antiproliferative activity against human HCT116 cells incubated for 48 hrs; format: functional, cell-based; conditions: HCT-116, 48 h
[5] = Toxicity in nude mouse xenografted with human NCI-H460 cells assessed as body weight loss at 2.5 to 5 mg/kg, ip administered every other day for 21 days; format: organism-based; conditions: in vivo, 504 h
[6] = test system: NCI-H460; assay: Antitumor activity against human NCI-H460 cells xenografted in nude mouse assessed as inhibition of tumor mass at 2.5 mg/kg, ip administered every other day for 21 days measured every 3 days; format: functional
[7] = test system: NCI-H460; assay: Anti-OXPHOS activity in human NCI-H460 cells assessed as inhibition of oxygen consumption rate at 8 uM in presence of uncoupling agent, FCCP by seahorse XFe96 analyser based assay
[8] = test system: NCI-H460; assay: Induction of apoptosis in human NCI-H460 cells by Annexin V/PI staining based flow cytometric analysis; format: functional, cell-based
[9] = test system: NCI-H460; assay: Induction of apoptosis in human NCI-H460 cells assessed as viable cells at 4 uM by Annexin V/PI staining based flow cytometric analysis (reference value: 95.3%); format: functional; conditions: read-out: Activity
[10] = test system: NCI-H460; assay: Induction of apoptosis in human NCI-H460 cells assessed as necrotic cells at 2 uM by Annexin V/PI staining based flow cytometric analysis (reference value: 2.75%); format: functional
[11] = test system: NCI-H460; assay: Antiproliferative activity against human NCI-H460 cells assessed as inhibition of cell growth at 32 uM incubated for 3 hrs; format: functional, cell-based
[12] = test system: NCI-H460; assay: Induction of apoptosis in human NCI-H460 cells assessed as early apoptotic cells at 4 uM by Annexin V/PI staining based flow cytometric analysis (reference value: […]); format: functional
[13] = test system: NCI-H460; assay: Induction of apoptosis in human NCI-H460 cells assessed as viable cells at 2 uM by Annexin V/PI staining based flow cytometric analysis (reference value: 95.3%); format: functional; conditions: read-out: Activity
[14] = test system: NCI-H460; assay: Induction of apoptosis in human NCI-H460 cells assessed as necrotic cells at 4 uM by Annexin V/PI staining based flow cytometric analysis (reference value: 2.75%); format: functional
[15] = test system: NCI-H460; assay: Anti-OXPHOS activity in human NCI-H460 cells assessed as inhibition of oxygen consumption rate at 4 uM incubated for 1 hr by seahorse XFe96 analyser based assay relative to control
[16] = test system: NCI-H460; assay: Induction of apoptosis in human NCI-H460 cells assessed as late apoptotic cells at 2 uM by Annexin V/PI staining based flow cytometric analysis (reference value: 1.17%); format: functional
[17] = test system: NCI-H460; assay: Antitumor activity against human NCI-H460 cells xenografted in nude mouse assessed as decrease in tumor volume at 2.5 mg/kg, ip administered every other day for 21 days measured every 3 days; format: functional, organism-based
[18] = test system: NCI-H460; assay: Anti-OXPHOS activity in human NCI-H460 cells assessed as inhibition of oxygen consumption rate at 8 uM by seahorse XFe96 analyser based assay
[19] = test system: NCI-H460; assay: Anti-OXPHOS activity in human NCI-H460 cells assessed as inhibition of mitochondrial oxidative phosphorylation by seahorse XFe96 analyser based assay; conditions: Mitochondria
[20] = test system: NCI-H460; assay: Induction of apoptosis in human NCI-H460 cells assessed as late apoptotic cells at 4 uM by Annexin V/PI staining based flow cytometric analysis (reference value: 1.17%); format: functional
[21] = Toxicity in nude mouse xenografted with human NCI-H460 cells assessed as mortality at 5 mg/kg, ip administered every other day for 21 days; format: organism-based; conditions: in vivo, 504 h
[22] = test system: NCI-H460; assay: Induction of apoptosis in human NCI-H460 cells assessed as early apoptotic cells at 2 uM by Annexin V/PI staining based flow cytometric analysis (reference value: […]); format: functional
[23] = Toxicity in nude mouse xenografted with human NCI-H460 cells assessed as body weight loss at 5 to 10 mg/kg, ip administered every other day for 21 days; format: organism-based; conditions: in vivo, 504 h
[24] = Toxicity in nude mouse xenografted with human NCI-H460 cells assessed as mortality at 10 mg/kg, ip administered every other day for 21 days; format: organism-based; conditions: in vivo, 504 h
[25] = test system: NCI-H460; assay: Antitumor activity against human NCI-H460 cells xenografted in nude mouse assessed as decrease in tumor volume at 5 mg/kg, ip administered every other day for 21 days measured every 3 days; format: functional, organism-based
[26] = test system: NCI-H460; assay: Antitumor activity against human NCI-H460 cells xenografted in nude mouse assessed as inhibition of tumor mass at 5 mg/kg, ip administered every other day for 21 days measured every 3 days; format: functional
[27] = test system: NCI-H460; assay: Inhibition of F0 subunit in F0F1 ATP synthase in human NCI-H460 cells assessed as inhibition of oxygen consumption rate at 1 uM by seahorse XFe96 analyser based assay; format: cell-based

SMILES: CC[C@H]1CCC[C@H](O[C@H]2CC[C@H](N(C)CCC[P+](c3ccccc3)(c3ccccc3)c3ccccc3)[C@@H](C)O2)[C@@H](C)C(=O)C2=C[C@@H]3[C@@H](C=C[C@@H]4C[C@@H](O[C@@H]5O[C@@H](C)[C@H](OC)[C@@H](OC)[C@H]5OC)C[C@@H]34)[C@@H]2CC(=O)O1
- IC50 [1]: 2.7 µM
- IC50 [2]: 4.1 µM
- IC50 [3]: 1300 nM
- IC50 [4]: 100 nM

SMILES: CC[C@H]1CCC[C@H](O[C@H]2CC[C@H](N(C)CCCCCC[P+](c3ccccc3)(c3ccccc3)c3ccccc3)[C@@H](C)O2)[C@@H](C)C(=O)C2=C[C@@H]3[C@@H](C=C[C@@H]4C[C@@H](O[C@@H]5O[C@@H](C)[C@H](OC)[C@@H](OC)[C@H]5OC)C[C@@H]34)[C@@H]2CC(=O)O1.[Br-]
- Activity [5]: Non-Toxic
- inhibition in vivo at 2.5 mg/kg [6]: 14.6%
- inhibition [7]: inactive
- Activity [8]: Dose-dependent effect
- viability at 4 µM [9]: 69.3%
- Activity [10]: 1.38%
- inhibition [11]: inactive
- IC50 [1]: 1.6 µM
- Activity [12]: 22%
- viability at 2 µM [13]: 74.8%
- Activity [14]: 1.69%
- inhibition [15]: 42%
- Activity [16]: 3.91%
- IC50 [2]: 2 µM
- inhibition [17]: Active
- inhibition [18]: Active
- inhibition [19]: Dose-dependent effect
- Activity [20]: 6.99%
- IC50 [3]: 1300 nM
- IC50 [4]: 300 nM
- Activity [21]: Toxic
- Activity [22]: 19.9%

SMILES: CC[C@H]1CCC[C@H](OC(=O)C[n+]2cccc(C(N)=O)c2)[C@@H](C)C(=O)C2=C[C@@H]3[C@@H](C=C[C@@H]4C[C@@H](O[C@@H]5O[C@@H](C)[C@H](OC)[C@@H](OC)[C@H]5OC)C[C@@H]34)[C@@H]2CC(=O)O1
- IC50 [2]: > 100 µM

SMILES: CC[C@H]1CCC[C@H](O[C@H]2CC[C@H](N(C)CCCCCC[n+]3ccc4ccccc4c3)[C@@H](C)O2)[C@@H](C)C(=O)C2=C[C@@H]3[C@@H](C=C[C@@H]4C[C@@H](O[C@@H]5O[C@@H](C)[C@H](OC)[C@@H](OC)[C@H]5OC)C[C@@H]34)[C@@H]2CC(=O)O1.[Br-]
- inhibition [7]: inactive
- Activity [23]: Non-Toxic
- Activity [8]: Dose-dependent effect
- Activity [24]: Toxic
- viability at 4 µM [9]: 70.7%
- Activity [10]: 1.21%
- inhibition [11]: inactive
- IC50 [1]: 4.6 µM
- Activity [12]: 20.7%
- viability at 2 µM [13]: 84.4%
- Activity [14]: 1.58%
- inhibition [15]: 41%
- Activity [16]: 5.01%
- IC50 [2]: 8.9 µM
- inhibition [18]: Active
- inhibition [19]: Dose-dependent effect
- inhibition [25]: Active
- Activity [20]: 6.98%
- IC50 [3]: 2500 nM
- IC50 [4]: 2800 nM
- inhibition in vivo at 5 mg/kg [26]: 8.8%
- Activity [22]: 9.36%

SMILES: CC[C@H]1/C=C/C=C/C[C@@H](C)[C@H](O)[C@@](C)(O)C(=O)[C@@H](C)[C@H](O)[C@@H](C)C(=O)[C@@H](C)[C@H](O)[C@@H](C)/C=C/C(=O)O[C@@H]2[C@H](C)[C@H](CC1)O[C@]1(CC[C@H](C)[C@H](C[C@@H](C)O)O1)[C@H]2C
- inhibition [27]: Active

SMILES: CC[C@H]1CCC[C@H](O[C@H]2CC[C@H](N(C)CCC[n+]3cccc(C(N)=O)c3)[C@@H](C)O2)[C@@H](C)C(=O)C2=C[C@@H]3[C@@H](C=C[C@@H]4C[C@@H](O[C@@H]5O[C@@H](C)[C@H](OC)[C@@H](OC)[C@H]5OC)C[C@@H]34)[C@@H]2CC(=O)O1
- IC50 [2]: > 100 µM

SMILES: CC[C@H]1CCC[C@H](OC(=O)CCC[n+]2cccc(C(N)=O)c2)[C@@H](C)C(=O)C2=C[C@@H]3[C@@H](C=C[C@@H]4C[C@@H](O[C@@H]5O[C@@H](C)[C@H](OC)[C@@H](OC)[C@H]5OC)C[C@@H]34)[C@@H]2CC(=O)O1
- IC50 [2]: > 100 µM

SMILES: CC[C@H]1CCC[C@H](OC(=O)CCC[P+](c2ccccc2)(c2ccccc2)c2ccccc2)[C@@H](C)C(=O)C2=C[C@@H]3[C@@H](C=C[C@@H]4C[C@@H](O[C@@H]5O[C@@H](C)[C@H](OC)[C@@H](OC)[C@H]5OC)C[C@@H]34)[C@@H]2CC(=O)O1
- IC50 [1]: 1.5 µM
- IC50 [2]: 3.1 µM
- IC50 [3]: 2700 nM
- IC50 [4]: 800 nM

SMILES: CC[C@H]1CCC[C@H](O[C@H]2CC[C@H](N(C)C)[C@@H](C)O2)[C@@H](C)C(=O)C2=C[C@@H]3[C@@H](C=C[C@@H]4C[C@@H](O[C@@H]5O[C@@H](C)[C@H](OC)[C@@H](OC)[C@H]5OC)C[C@@H]34)[C@@H]2CC(=O)O1 [SPINOSYN A]
- IC50 [1]: 67.5 µM
- IC50 [2]: 17.9 µM
- IC50 [3]: 96500 nM
- IC50 [4]: 11100 nM

Results, then the compound that gave them:

- IC50 [2]: 23.7 µM
SMILES: CC[C@H]1CCC[C@H](O[C@H]2CC[C@H](N(C)CCC[n+]3ccccc3)[C@@H](C)O2)[C@@H](C)C(=O)C2=C[C@@H]3[C@@H](C=C[C@@H]4C[C@@H](O[C@@H]5O[C@@H](C)[C@H](OC)[C@@H](OC)[C@H]5OC)C[C@@H]34)[C@@H]2CC(=O)O1

- IC50 [2]: 30.5 µM
SMILES: CC[C@H]1CCC[C@H](O[C@H]2CC[C@H](N(C)CCCCCC[n+]3cccc(C(N)=O)c3)[C@@H](C)O2)[C@@H](C)C(=O)C2=C[C@@H]3[C@@H](C=C[C@@H]4C[C@@H](O[C@@H]5O[C@@H](C)[C@H](OC)[C@@H](OC)[C@H]5OC)C[C@@H]34)[C@@H]2CC(=O)O1

- IC50 [2]: > 100 µM
SMILES: CC[C@H]1CCC[C@H](OC(=O)CCC[n+]2ccccc2)[C@@H](C)C(=O)C2=C[C@@H]3[C@@H](C=C[C@@H]4C[C@@H](O[C@@H]5O[C@@H](C)[C@H](OC)[C@@H](OC)[C@H]5OC)C[C@@H]34)[C@@H]2CC(=O)O1

- IC50 [1]: 22 µM
- IC50 [2]: 4.3 µM
- IC50 [3]: 11200 nM
- IC50 [4]: 9800 nM
SMILES: CC[C@H]1CCC[C@H](O[C@H]2CC[C@H](N(C)CCCCCC[n+]3ccccc3)[C@@H](C)O2)[C@@H](C)C(=O)C2=C[C@@H]3[C@@H](C=C[C@@H]4C[C@@H](O[C@@H]5O[C@@H](C)[C@H](OC)[C@@H](OC)[C@H]5OC)C[C@@H]34)[C@@H]2CC(=O)O1

- IC50 [2]: > 100 µM
SMILES: CC[C@H]1CCC[C@H](OC(=O)C[n+]2ccccc2)[C@@H](C)C(=O)C2=C[C@@H]3[C@@H](C=C[C@@H]4C[C@@H](O[C@@H]5O[C@@H](C)[C@H](OC)[C@@H](OC)[C@H]5OC)C[C@@H]34)[C@@H]2CC(=O)O1
